Columns and labels:
[1] = biological target: ABL2 (Homo sapiens, UniProt P42684); details: binder
[2] = biological target: ADRBK1 (Homo sapiens, UniProt P25098); details: binder
[3] = biological target: CAMK2G (Homo sapiens, UniProt Q13555); details: binder
[4] = biological target: CDKL5 (Homo sapiens, UniProt O76039); details: binder
[5] = biological target: GRK1 (Homo sapiens, UniProt Q15835); details: binder
[6] = biological target: GRK5 (Homo sapiens, UniProt P34947); details: binder
[7] = biological target: ITK (Homo sapiens, UniProt Q08881); details: binder
[8] = biological target: JAK1 (Homo sapiens, UniProt P23458); details: binder
[9] = biological target: LATS1 (Homo sapiens, UniProt O95835); details: binder
[10] = biological target: MAP3K5 (Homo sapiens, UniProt Q99683); details: binder
[11] = biological target: MAPK6 (Homo sapiens, UniProt Q16659); details: binder
[12] = biological target: MYLK2 (Homo sapiens, UniProt Q9H1R3); details: binder
[13] = biological target: NEK1 (Homo sapiens, UniProt Q96PY6); details: binder
[14] = biological target: NEK11 (Homo sapiens, UniProt Q8NG66); details: binder
[15] = biological target: PRKCZ (Homo sapiens, UniProt Q05513); details: binder
[16] = biological target: RIOK2 (Homo sapiens, UniProt Q9BVS4); details: binder
[17] = biological target: RPS6KA3 (Homo sapiens, UniProt P51812); details: binder
[18] = biological target: SIK1 (Homo sapiens, UniProt P57059); details: binder
[19] = biological target: SIK2 (Homo sapiens, UniProt Q9H0K1); details: binder
[20] = biological target: STK25 (Homo sapiens, UniProt O00506); details: binder
[21] = biological target: STK4 (Homo sapiens, UniProt Q13043); details: binder
[22] = biological target: ACVR1B (Homo sapiens, UniProt P36896); details: binder
[23] = biological target: BMPR1A (Homo sapiens, UniProt P36894); details: binder
[24] = biological target: BMPR2 (Homo sapiens, UniProt Q13873); details: binder
[25] = biological target: CLK1 (H148-I484) (Homo sapiens, UniProt P49759); details: binder
[26] = biological target: CLK1 (H148-I484) (Homo sapiens, UniProt P49759, V324A); details: binder
[27] = biological target: CLK3 (R134-T484) (Homo sapiens, UniProt P49761); details: binder
[28] = biological target: CLK3 (R134-T484) (Homo sapiens, UniProt P49761, A319V); details: binder
[29] = biological target: CLK1 (full-length) (Homo sapiens, UniProt P49759); assay: cell-based; design: species or system HEK293T
[30] = biological target: CLK1 (full-length) (Homo sapiens, UniProt P49759, V324A); assay: cell-based; design: species or system HEK293T

Sequence of CDKL5 (O76039 whole entry): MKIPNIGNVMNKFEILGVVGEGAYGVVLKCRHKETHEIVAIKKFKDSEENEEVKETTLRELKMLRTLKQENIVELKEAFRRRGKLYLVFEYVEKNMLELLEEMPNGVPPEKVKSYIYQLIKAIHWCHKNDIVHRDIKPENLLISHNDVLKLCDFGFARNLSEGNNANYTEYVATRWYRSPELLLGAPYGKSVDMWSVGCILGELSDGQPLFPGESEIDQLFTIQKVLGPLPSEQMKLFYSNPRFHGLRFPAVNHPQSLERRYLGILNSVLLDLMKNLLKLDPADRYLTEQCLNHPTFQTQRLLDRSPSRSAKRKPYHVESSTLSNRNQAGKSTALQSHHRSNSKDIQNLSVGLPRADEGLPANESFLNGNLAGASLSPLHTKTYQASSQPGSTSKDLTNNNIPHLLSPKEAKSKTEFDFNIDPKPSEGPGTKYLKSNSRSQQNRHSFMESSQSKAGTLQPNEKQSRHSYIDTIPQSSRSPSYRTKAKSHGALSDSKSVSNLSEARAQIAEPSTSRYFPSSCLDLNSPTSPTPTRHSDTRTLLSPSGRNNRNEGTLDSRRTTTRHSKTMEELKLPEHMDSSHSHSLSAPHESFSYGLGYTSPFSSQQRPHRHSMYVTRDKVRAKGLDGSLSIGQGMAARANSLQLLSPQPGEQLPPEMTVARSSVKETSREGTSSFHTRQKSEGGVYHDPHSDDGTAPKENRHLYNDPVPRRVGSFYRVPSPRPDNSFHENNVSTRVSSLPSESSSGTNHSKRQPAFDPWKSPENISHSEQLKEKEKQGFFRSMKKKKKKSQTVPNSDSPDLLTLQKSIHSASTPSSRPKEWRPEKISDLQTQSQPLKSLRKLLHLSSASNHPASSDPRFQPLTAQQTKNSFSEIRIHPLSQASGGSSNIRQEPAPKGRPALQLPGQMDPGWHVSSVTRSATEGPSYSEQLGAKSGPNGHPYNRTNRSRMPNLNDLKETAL
Sequence of STK4 (Q13043 whole entry): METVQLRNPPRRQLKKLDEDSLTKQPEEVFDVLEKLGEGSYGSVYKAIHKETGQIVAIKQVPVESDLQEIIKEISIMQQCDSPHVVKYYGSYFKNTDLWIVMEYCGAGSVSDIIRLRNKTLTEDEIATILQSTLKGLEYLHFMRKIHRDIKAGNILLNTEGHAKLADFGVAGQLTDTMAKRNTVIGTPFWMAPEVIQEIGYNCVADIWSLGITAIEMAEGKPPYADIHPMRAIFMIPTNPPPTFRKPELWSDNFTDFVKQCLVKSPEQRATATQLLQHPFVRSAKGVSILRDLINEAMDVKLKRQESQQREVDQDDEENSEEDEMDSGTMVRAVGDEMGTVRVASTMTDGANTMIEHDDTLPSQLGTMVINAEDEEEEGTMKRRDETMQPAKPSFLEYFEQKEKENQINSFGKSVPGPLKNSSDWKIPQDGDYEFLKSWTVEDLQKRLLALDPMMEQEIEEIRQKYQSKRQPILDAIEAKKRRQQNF
Sequence of CLK1 (H148-I484) (Homo sapiens, UniProt P49759, V324A) (P49759 148-484 V324A): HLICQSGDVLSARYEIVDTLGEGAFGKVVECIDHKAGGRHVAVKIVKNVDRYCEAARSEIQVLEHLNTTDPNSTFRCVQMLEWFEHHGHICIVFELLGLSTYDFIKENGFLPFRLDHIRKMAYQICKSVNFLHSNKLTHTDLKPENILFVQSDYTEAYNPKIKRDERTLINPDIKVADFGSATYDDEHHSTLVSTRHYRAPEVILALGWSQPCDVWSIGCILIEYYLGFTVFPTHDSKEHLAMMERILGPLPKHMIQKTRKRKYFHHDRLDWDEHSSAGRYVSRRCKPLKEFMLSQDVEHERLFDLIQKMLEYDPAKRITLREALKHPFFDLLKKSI
Sequence of MAP3K5 (Q99683 whole entry): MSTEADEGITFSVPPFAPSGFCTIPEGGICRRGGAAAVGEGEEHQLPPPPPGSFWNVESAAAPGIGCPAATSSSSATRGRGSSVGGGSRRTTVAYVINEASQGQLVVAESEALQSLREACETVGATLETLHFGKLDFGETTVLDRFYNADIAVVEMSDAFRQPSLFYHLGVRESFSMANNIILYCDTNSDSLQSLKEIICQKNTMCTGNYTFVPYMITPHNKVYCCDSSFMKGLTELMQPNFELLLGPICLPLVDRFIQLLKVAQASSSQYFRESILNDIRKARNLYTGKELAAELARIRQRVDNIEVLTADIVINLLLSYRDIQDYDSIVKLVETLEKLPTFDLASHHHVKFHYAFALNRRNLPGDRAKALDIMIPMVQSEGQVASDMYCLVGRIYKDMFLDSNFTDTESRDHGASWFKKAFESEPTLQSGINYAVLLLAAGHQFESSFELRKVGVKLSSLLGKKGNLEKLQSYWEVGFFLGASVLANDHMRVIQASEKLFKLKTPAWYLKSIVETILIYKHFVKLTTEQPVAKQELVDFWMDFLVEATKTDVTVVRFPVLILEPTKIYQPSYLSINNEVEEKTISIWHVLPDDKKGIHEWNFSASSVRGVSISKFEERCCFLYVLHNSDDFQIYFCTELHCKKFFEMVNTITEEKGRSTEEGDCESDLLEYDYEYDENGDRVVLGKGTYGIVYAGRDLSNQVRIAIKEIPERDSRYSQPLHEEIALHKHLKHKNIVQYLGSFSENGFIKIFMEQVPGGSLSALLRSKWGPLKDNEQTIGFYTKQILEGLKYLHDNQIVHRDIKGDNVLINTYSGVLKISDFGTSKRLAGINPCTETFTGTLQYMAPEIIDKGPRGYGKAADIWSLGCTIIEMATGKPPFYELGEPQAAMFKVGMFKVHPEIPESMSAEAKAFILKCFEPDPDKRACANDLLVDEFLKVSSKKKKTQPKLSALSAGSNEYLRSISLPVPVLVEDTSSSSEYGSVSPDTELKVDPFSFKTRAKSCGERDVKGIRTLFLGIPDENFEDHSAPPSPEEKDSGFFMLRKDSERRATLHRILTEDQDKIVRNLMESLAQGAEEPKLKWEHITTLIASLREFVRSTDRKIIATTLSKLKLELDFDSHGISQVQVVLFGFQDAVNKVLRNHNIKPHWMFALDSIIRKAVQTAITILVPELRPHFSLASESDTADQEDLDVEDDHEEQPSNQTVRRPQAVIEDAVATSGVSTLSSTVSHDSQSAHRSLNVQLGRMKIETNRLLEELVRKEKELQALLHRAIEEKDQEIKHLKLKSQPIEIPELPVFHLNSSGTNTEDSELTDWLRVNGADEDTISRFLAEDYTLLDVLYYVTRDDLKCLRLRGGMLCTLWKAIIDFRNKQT
Sequence of STK25 (O00506 whole entry): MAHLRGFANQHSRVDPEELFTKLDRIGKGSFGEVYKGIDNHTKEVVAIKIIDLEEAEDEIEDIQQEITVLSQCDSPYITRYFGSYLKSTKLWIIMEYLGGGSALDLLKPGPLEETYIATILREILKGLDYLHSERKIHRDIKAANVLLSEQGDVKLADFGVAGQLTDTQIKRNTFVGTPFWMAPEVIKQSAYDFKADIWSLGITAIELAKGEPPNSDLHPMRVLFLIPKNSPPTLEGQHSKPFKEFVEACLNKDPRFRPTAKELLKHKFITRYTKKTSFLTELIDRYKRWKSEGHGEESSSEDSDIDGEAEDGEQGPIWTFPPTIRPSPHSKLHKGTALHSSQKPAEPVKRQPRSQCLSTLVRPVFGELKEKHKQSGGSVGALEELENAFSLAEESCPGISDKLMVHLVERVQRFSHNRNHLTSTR
Sequence of GRK1 (Q15835 whole entry): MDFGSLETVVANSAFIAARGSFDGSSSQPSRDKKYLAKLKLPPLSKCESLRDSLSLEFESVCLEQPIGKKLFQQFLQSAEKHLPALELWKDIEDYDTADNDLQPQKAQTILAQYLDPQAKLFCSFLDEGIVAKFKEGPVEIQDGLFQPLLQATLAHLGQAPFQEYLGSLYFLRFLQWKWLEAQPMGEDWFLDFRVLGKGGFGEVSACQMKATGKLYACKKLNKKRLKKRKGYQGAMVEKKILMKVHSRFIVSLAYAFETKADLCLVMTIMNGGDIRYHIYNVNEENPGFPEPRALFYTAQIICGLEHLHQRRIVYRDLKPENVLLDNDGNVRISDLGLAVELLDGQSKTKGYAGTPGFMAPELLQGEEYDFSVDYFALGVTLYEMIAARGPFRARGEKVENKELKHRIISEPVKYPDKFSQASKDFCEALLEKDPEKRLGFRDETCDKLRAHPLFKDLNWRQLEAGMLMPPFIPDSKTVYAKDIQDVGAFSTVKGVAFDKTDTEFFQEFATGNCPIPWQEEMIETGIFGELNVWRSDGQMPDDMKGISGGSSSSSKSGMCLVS
Sequence of MAPK6 (Q16659 whole entry): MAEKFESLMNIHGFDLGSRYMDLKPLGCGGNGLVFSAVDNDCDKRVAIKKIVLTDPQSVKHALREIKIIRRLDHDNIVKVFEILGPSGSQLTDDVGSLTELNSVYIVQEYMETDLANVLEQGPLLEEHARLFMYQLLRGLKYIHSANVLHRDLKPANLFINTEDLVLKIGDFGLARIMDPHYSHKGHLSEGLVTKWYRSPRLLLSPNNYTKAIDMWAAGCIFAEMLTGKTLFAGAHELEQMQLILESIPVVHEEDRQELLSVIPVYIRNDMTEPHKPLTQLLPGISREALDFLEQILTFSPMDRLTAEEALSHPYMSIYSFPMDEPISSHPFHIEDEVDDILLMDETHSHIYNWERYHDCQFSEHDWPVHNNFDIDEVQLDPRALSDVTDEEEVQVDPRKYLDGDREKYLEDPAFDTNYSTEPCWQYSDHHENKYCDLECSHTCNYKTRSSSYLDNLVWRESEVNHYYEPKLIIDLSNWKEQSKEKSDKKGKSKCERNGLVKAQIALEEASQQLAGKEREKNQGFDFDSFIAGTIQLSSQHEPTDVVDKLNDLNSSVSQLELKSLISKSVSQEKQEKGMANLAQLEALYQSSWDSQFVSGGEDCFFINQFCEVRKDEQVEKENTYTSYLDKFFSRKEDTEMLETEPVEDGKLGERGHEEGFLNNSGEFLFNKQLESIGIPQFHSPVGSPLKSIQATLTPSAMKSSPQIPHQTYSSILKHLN
Sequence of CLK1 (H148-I484) (Homo sapiens, UniProt P49759) (P49759 148-484): as the sequence (P49759 148-484 V324A) above, with A177V counted along it

Question: Which “ΔTm inhibitor 2” value [1] does the source give for CCN1/C(=C/C(C)=O)Sc2ccc(OC)cc21 [compound 2, TG003] here?
Answer: -0.5 °C

Question: What about the “ΔTm inhibitor 2” value [2] of the same compound?
Answer: 0.1 °C

Question: And the “ΔTm inhibitor 2” value [3]?
Answer: 0.1 °C

Question: And the “ΔTm inhibitor 2” value [4]?
Answer: 1.1 °C

Question: What about the “ΔTm inhibitor 2” value [5] of the same compound?
Answer: 0.4 °C

Question: And the “ΔTm inhibitor 2” value [6]?
Answer: 0.8 °C

Question: What about the “ΔTm inhibitor 2” value [7] of the same compound?
Answer: 1.1 °C

Question: What about the “ΔTm inhibitor 2” value [8] of the same compound?
Answer: 0.1 °C

Question: And the “ΔTm inhibitor 2” value [9]?
Answer: 0.1 °C

Question: What about the “ΔTm inhibitor 2” value [10] of the same compound?
Answer: 0.4 °C

Question: And the “ΔTm inhibitor 2” value [11]?
Answer: 0.0 °C

Question: What about the “ΔTm inhibitor 2” value [12] of the same compound?
Answer: -1.4 °C

Question: And the “ΔTm inhibitor 2” value [13]?
Answer: -0.3 °C

Question: And the “ΔTm inhibitor 2” value [14]?
Answer: 0.6 °C

Question: And the “ΔTm inhibitor 2” value [15]?
Answer: -0.2 °C

Question: And the “ΔTm inhibitor 2” value [16]?
Answer: -0.2 °C

Question: And the “ΔTm inhibitor 2” value [17]?
Answer: 0.7 °C

Question: And the “ΔTm inhibitor 2” value [18]?
Answer: 1.5 °C

Question: And the “ΔTm inhibitor 2” value [19]?
Answer: -0.2 °C

Question: What about the “ΔTm inhibitor 2” value [20] of the same compound?
Answer: 0.7 °C

Question: What about the “ΔTm inhibitor 2” value [21] of the same compound?
Answer: 0.7 °C

Question: For CC(=O)c1cccc(-c2cnc3ccc(NCC4CC4)nn23)c1 [compound 1, K00135], which “ΔTm inhibitor 1” value [22] is on record?
Answer: 9.1 °C

Question: And the “ΔTm inhibitor 1” value [23]?
Answer: 10.9 °C

Question: What about the “ΔTm inhibitor 1” value [24] of the same compound?
Answer: 7.8 °C

Question: What about the “ΔTm inhibitor 1” value [5] of the same compound?
Answer: 1.1 °C

Question: And the “ΔTm inhibitor 1” value [8]?
Answer: 6.4 °C

Question: What about the “ΔTm inhibitor 1” value [10] of the same compound?
Answer: 2.2 °C

Question: What about the “ΔTm inhibitor 1” value [11] of the same compound?
Answer: 0.4 °C

Question: And the “ΔTm inhibitor 1” value [16]?
Answer: 0.3 °C

Question: What about the “ΔTm inhibitor 1” value [17] of the same compound?
Answer: 3.4 °C

Question: What about the “ΔTm inhibitor 1” value [20] of the same compound?
Answer: 0.5 °C

Question: What about the “ΔTm inhibitor 1” value [21] of the same compound?
Answer: 2.6 °C

Question: And the “ΔTm wild type CLK1” value [25]?
Answer: 7.2 °C

Question: What about the “ΔTm V324A CLK1” value [26] of the same compound?
Answer: 4.9 °C

Question: And the “ΔTm wild type CLK3” value [27]?
Answer: 1.4 °C

Question: What about the “ΔTm A319V CLK3” value [28] of the same compound?
Answer: 5.8 °C

Question: What about the Ki [29] of the same compound?
Answer: 229 ± 100 nM

Question: What about the Ki [30] of the same compound?
Answer: 512 ± 100 nM

Question: Which “ΔTm inhibitor 4” value [22] does the source give for Nc1nccc(-c2ccc3noc(-c4ccc(Cl)cc4)c3c2)n1 [compound 4, K00972] here?
Answer: 1.1 °C

Question: And the “ΔTm inhibitor 4” value [4]?
Answer: 0.3 °C

Question: What about the “ΔTm inhibitor 4” value [12] of the same compound?
Answer: 0.0 °C

Question: What about the “ΔTm inhibitor 4” value [13] of the same compound?
Answer: 0.6 °C

Question: And the “ΔTm inhibitor 4” value [19]?
Answer: 0.4 °C

Question: What about the “ΔTm wild type CLK1” value [25] of the same compound?
Answer: 5.7 °C

Question: And the “ΔTm V324A CLK1” value [26]?
Answer: 2.4 °C

Question: And the “ΔTm wild type CLK3” value [27]?
Answer: 0.1 °C

Question: And the “ΔTm A319V CLK3” value [28]?
Answer: 0.6 °C

— paper doi:10.1101/2020.07.01.182642v1 (biorxiv, 2020)
